Columns and labels:
Type in all cases: cell-based
[1] = test system: IGROV1-R10 ovarian cancer cells; assay: PARP and caspase 3 cleavage by western blot; parameters: key to PARP cleavage: +: a little band corresponding to the 85 kDa cleaved form of PARP is observable on the western blot; ++: a band corresponding to the 85 kDa cleaved form of PARP is clearly observable on the western blot; +++: PARP in nearly completely cleaved; settings: Molecule + Bcl-xL targeting siRNA
Protocol: (§1) Exponentially growing cells were transfected by siRNA as described below, and after 48 h, cells were continuously exposed to (Het)aromatic oligosystems (10, 25 or 50 μM) dissolved in DMSO (<0.1% of total volume) for 4 to 24 supplementary hours.
(§2) Cells were seeded in 25 cm^2 flasks the day before to reach 30-50% confluency at the time of transfection. The transfection INTERFERin™ reagent (Polyplus Transfection, Strasbourg. France) was added to siRNA diluted in Opti-MEM® reduced serum medium (Invitrogen, Cergy-Pontoise, France) and complexes formation was allowed to proceed for 15 min at RT before being applied to cells. The final siRNA concentration in the flasks was 20 nM.
Cells were rinsed with ice-cold PBS, suspended in a lysis buffer [RIPA:NaCl 150 mM, Tris (pH 8) 50 mM, Triton X100 1%, PMSF 4 mM, EDTA 5 mM, NaF 10 mM, NaPPi 10 mM, Na3OV4 1 mM, aprotinin 0.5 μl/ml and 4.6 ml ultra pure water] and incubated on ice for 30 minutes. Lysates were collected after centrifugation (13200 g, 10 min, 4° C.) and protein concentrations were determined using the Bradford assay (Bio-Rad, Hercules, USA). 20 μg of protein were separated by SDS-PAGE on a 4-12% gradient polyacrylamide gel (Invitrogen, Cergy-Pontoise, France) and transferred to Hybond-PVDF membranes (Amersham, Orsay, France). After blocking non-specific binding sites for 1 hour at RT by 5% (w/v) non-fat dry milk in TBS with 0.1% (v/v) Tween20 (T-TBS), the membranes were incubated overnight at 4° C. with the following rabbit monoclonal antibody: PARP, caspase-3 and Bcl-xL, Bim (Cell Signaling Technology, Ozyme, Saint-Quentin-en-Yvelines, France), Mcl-1 (Santa Cruz, Le Perray-en-Yvelines, France), HSP-70, Noxa (Calbiochem, Fontenay-sous-Bois, France), (Cell Signalling) and Actin (Sigma-Aldrich, Saint-Quentin Fallavier, France). Membranes were then washed with T-TBS and incubated for 1 hour with the appropriate horseradish peroxidase-conjugated anti-rabbit or anti-mouse (Amersham, Orsay, France) secondary antibodies. Revelation was done using a luminescent Image Analyzer (GE Healthcare, Orsay, France).

[2] = test system: IGROV1-R10 ovarian cancer cells; assay: DNA content histograms (sub-G1) by flow cytometry; settings: Molecule + Bcl-xL targeting siRNA
Protocol: as §1
as §2, with “The final siRNA concentration in the flasks was 20 nM.” left out
Adherent and floating cells were pooled, washed with 1×PBS and centrifuged at 200 g for 5 min before staining by Annexin V, propidium iodide or both, as recommended by the manufacturer (Roche Diagnostic, Indianapolis, USA). Briefly, 100 μl of Annexin V—Flit or propidium iodide or both were added on the cells pellet (10^6 cells) and incubated 15 minutes at room temperature in obscurity. 500 μl of sample buffer was then added on the suspensions that were thereafter analyzed using a Gallios flow cytometer (Beckman Coulter, Roissy, France) and cell cycle distribution was determined using Kaluza acquisition software (Beckman Coulter).

[3] = test system: IGROV1-R10 ovarian cancer cells; assay: Nuclear morphology after DAPI staining; parameters: key to Apoptotic nuclear features: +: a few condensed or fragmented nuclei are observable after DAPI staining; ++: numerous condensed or fragmented nuclei are observable after DAPI staining (20-50%); +++: most of the nuclei are condensed or fragmented; settings: Molecule + Bcl-xL targeting siRNA, DAPI staining
Protocol: as §1, §2
After treatment, both detached and adherent cells were pooled after trypsinization, applied to a polylysine-coated glass slide by cytocentrifugation and fixed with a solution of ethanol/chloroform/acetic acid (6:3:1). The preparations were then incubated for 15 min at room temperature with 1 μg/ml DAPI solution (Boehringer Mannheim-Roche, Mannheim, Germany), washed in distillated water, mounted under a coverslip in Mowiol (Calbiochem) and analyzed under a fluorescence microscope (BX51, Olympus, Rungis, France).
Cells were fixed with 2.5% glutaraldehyde in PBS buffer, included in agar, rinsed in Sorensen's buffer, post-fixed in osmium tetroxide 1% in Sorensen's buffer, deshydrated in ethanol and embedded in EPON resin. Ultrathin sections were cut and stained with uranyl acetate and lead citrate and examined using a JEOL1011 transmission electron microscope.

[4] = test system: IGROV1-R10 ovarian cancer cells; assay: Cellular morphology / cell detachment, molecule alone or with Bcl-xL targeting siRNA; settings: Molecule + Bcl-xL targeting siRNA
Protocol: as §1, §2

| Structure (SMILES) | PARP cleavage [1] | Sub-G1 (%) [2] [%] | Apoptotic nuclear features [3] | Cell detachment [4] |
| --- | --- | --- | --- | --- |
| Cc1cc(-c2ncc(-c3ccccc3)cc2/C=C/c2ccccc2)cnc1-c1ccccc1 [compound 30814, 3-methyl-2-phenyl-5-(5-phenyl-3-styrylpyridin-2-yl)pyridine] | + | 37.2 | + | – |
| COc1ccc(-c2cnc(-c3cnc(-c4ccc(OC)c(OC)c4)c(C)c3)c(/C=C/c3ccccc3)c2)cc1OC [compound 30846, 2-(3,4-dimethoxyphenyl)-5-(5-(3,4-dimethoxyphenyl)-3-styrylpyridin-2-yl)-3-methylpyridine] | – | 33.1 | + | – |
| COc1cc(-c2cnc(-c3cnc(-c4cc(OC)c(OC)c(OC)c4)c(C)c3)c(/C=C/c3ccccc3)c2)cc(OC)c1OC [compound 30847, 5-(3,4,5-trimethoxyphenyl)-2-(6-(3,4,5-trimethoxyphenyl)-5-methylpyridin-3-yl)-3-styrylpyridine] | – | 22 | + | ± (very few cells were detached from the support (less than 10%)) |
| COc1ccc(-c2cnc(-c3cnc(-c4cc(OC)c(OC)c(OC)c4)c(C)c3)c(/C=C/c3ccccc3)c2)cc1OC [compound 30849, 5-(3,4-dimethoxyphenyl)-2-(6-(3,4,5-trimethoxyphenyl)-5-methylpyridin-3-yl)-3-styrylpyridine] | – | 19.9 | + | – |
| COc1ccc(-c2ncc(-c3ncc(-c4cc(OC)c(OC)c(OC)c4)cc3/C=C/c3ccccc3)cc2C)cc1OC [compound 30850, 5-(3,4,5-trimethoxyphenyl)-2-(6-(3,4-dimethoxyphenyl)-5-methylpyridin-3-yl)-3-styrylpyridine] | – | 20.2 | + | – |
| Cc1cc(-c2ncc(-c3ccc(C#N)cc3)cc2/C=C/c2ccccc2)cnc1-c1ccc(C#N)cc1 [compound 30854, 3-methyl-2-(4-cyanophenyl)-5-(5-(4-cyanophenyl)-3-styrylpyridin-2-yl)pyridine] | – | 24.3 | + | ± (very few cells were detached from the support (less than 10%)) |
| Cc1cc(-c2ncc(-c3sccc3C)cc2/C=C/c2ccccc2)cnc1-c1sccc1C [compound 31336, 3-methyl-2-(3-methylthiophen-2-yl)-5-(5-(3-methylthiophen-2-yl)-3-(E)-styrylpyridin-2-yl)pyridine] | – | 48.8 | ++ (numerous condensed or fragmented nuclei are observable after DAPI staining (20-50%)) | – |
| Cc1cc(-c2ncc(-c3ccccc3)cc2/C=C/c2ccccc2)cnc1-c1cccnc1 [compound 31348, 3-methyl-5-(5-phenyl-3-styrylpyridin-2-yl)-2-(pyridin-3-yl)pyridine] | +++ | 58.8 | +++ | – |
| Cc1cc(-c2ncc(-c3cccnc3)cc2/C=C/c2ccccc2)cnc1-c1ccccc1 [compound 31349, 3-(6-(5-methyl-6-phenylpyridin-3-yl)-5-styrylpyridin-3-yl)pyridine] | +++ | 59.2 | +++ | – |
| Cc1cc(-c2ncc(-c3cnc(Cl)n3C)cc2/C=C/c2ccccc2)cnc1-c1cnc(Cl)n1C [compound 31351, 5-(2-chloro-1-methyl-1H-imidazol-5-yl)-2-(6-(2-chloro-1-methyl-1H-imidazol-5-yl)-5-methylpyridin-3-yl)-3-styrylpyridine] | – | 56.7 | +++ | – |
| Cc1cc(-c2ncc(-c3cncnc3)cc2/C=C/c2ccccc2)cnc1-c1cncnc1 [compound 31361, 5-(3-methyl-5-(5-(pyrimidin-5-yl)-3-styrylpyridin-2-yl)pyridin-2-yl)pyrimidine] | – | 35.2 | ++ (numerous condensed or fragmented nuclei are observable after DAPI staining (20-50%)) | – |
| Cc1cc(-c2ncc(-c3ccn[nH]3)cc2/C=C/c2ccccc2)cnc1-c1ccn[nH]1 [compound 31363, 2-(5-methyl-6-(1H-pyrazol-5-yl)pyridin-3-yl)-5-(1H-pyrazol-5-yl)-3-styrylpyridine] | – | 63.7 | +++ | – |
| Cc1cc(-c2ncc(-c3cccnc3)cc2/C=C/c2ccccc2)cnc1-c1cccc(O)c1 [compound 31364, 3-(3-methyl-5-(5-(pyridin-3-yl)-3-styrylpyridin-2-yl)pyridin-2-yl)phenol] | – | 39.6 | ++ (numerous condensed or fragmented nuclei are observable after DAPI staining (20-50%)) | – |
| Cc1cc(-c2ncc(-c3cccnc3)cc2/C=C/c2ccccc2)cnc1-c1cccc(C/C(N)=N/O)c1 [compound 31367, (1Z)—N′-hydroxy-2-(3-(3-methyl-5-(5-(pyridin-3-yl)-3-styrylpyridin-2-yl)pyridin-2-yl)phenyl)acetamidine] | – | 52.7 | +++ | – |

From patent US10307410B2, “Mcl-1 modulating compounds for cancer treatment” (CENTRE REGIONAL DE LUTTE CONTRE LE CANCER FRANCOIS BACLESSE, priority 2014, dated 2019)
